For 25 compounds, IC50 and melting point results are on record in patent US7727989B2, “4-benzimidazol-2-yl-pyridazine-3-one-derivatives, production and use thereof in medicaments” (Sanofi-Aventis Deutschland GmbH, priority 2004, dated 2010).

Molecules are shown by their SMILES. A value given as a limit tells only on which side of the number the result lay.

Sequence of human recombinant GSK-3β (P49841 whole entry): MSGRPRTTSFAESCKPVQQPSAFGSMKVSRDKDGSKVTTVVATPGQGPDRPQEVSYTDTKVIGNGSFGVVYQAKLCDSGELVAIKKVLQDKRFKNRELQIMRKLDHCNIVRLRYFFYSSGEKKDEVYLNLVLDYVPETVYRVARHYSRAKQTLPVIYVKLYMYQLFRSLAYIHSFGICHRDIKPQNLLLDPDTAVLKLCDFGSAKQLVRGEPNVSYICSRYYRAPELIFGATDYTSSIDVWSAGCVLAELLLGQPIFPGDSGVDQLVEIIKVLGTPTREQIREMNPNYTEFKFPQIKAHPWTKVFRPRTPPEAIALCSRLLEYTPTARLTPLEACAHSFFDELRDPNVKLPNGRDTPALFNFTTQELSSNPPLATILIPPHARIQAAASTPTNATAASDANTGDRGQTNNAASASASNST

The first data set has as its target human recombinant GSK-3β (Homo sapiens, UniProt P49841). Briefly: GSK-3β activity, AlphaScreen, primed glycogen synthase substrate peptide. It counts as biochemical.
Conditions: not given
The method, then: Functional measurements to ascertain IC50 values:
GSK-3β activity is measured using human recombinant GSK-3β and a primed (pre-phosphorylated) substrate peptide (derived from glycogen synthase and containing the phosphorylation sites 3a, b, and c) on the basis of the AlphaScreen technology in 384-well plate format (small volume plate, white, Greiner). […] After adding […] Donor beads (20 μg/ml) and […] antibody (anti-phosphoglycogen synthase 1:2000)-coated Acceptor beads (40 μg/ml) in AlphaScreen detection buffer (20 mM Hepes, pH 7.4, 10 mM MgCl, 40 mM EDTA, 1 mM DTT, 0.1 mg/ml BSA), plates are incubated at room temperature (in the dark) overnight and then placed in a reader (Alphaquest or Fusion) to measure final fluorescence. IC50 values are calculated from the fitted curve corrected for bank values (absence of GSK-3β) and performed in triplicate.
Consider `Cn1cc(-c2cc(-c3nc4ccccc4[nH]3)c(=O)[nH]n2)ccc1=O` [Example 50, 4-(1H-Benzimidazol-2-yl)-6-(1-methyl-6-oxo-1,6-dihydropyridin-3-yl)-2H-pyridazin-3-one], for which the IC50 stood at 0.157 µM.

The data set is the same for the next values; noted with them: human recombinant GSK-3β 0.18 nM, biot. phospho-glycogen synthase peptide 34 nM, 10 μM ATP, 60 min room temperature, triplicate; read-out: IC50.
Consider `O=c1[nH]nc(-c2ccncc2)cc1-c1nc2cc(C(F)(F)F)ccc2[nH]1` [Example 6, 4-(6-Tri-fluoromethyl-1H-benzimidazol-2-yl)-6-pyridin-4-yl-2H-pyridazin-3-one], for which the IC50 came out at 0.016 µM. As to `N#Cc1ccc2[nH]c(-c3cc(-c4ccncc4)n[nH]c3=O)nc2c1` [Example 21, 4-(5-Cyano-1H-benzimidazol-2-yl)-6-pyridin-4-yl-2H-pyridazin-3-one], the IC50 was 0.057 µM. The same measure, in the same setting: in the case of `Cc1cc(-c2cc(-c3nc4ccc(C(F)(F)F)cc4[nH]3)c(=O)[nH]n2)cc(C)c1O` [Example 25, 6-(4-Hydroxy-3,5-dimethylphenyl)-4-(6-tri-fluoromethyl-1H-benzimidazol-2-yl)-2H-pyridazin-3-one] it was 0.056 µM; in that of `O=c1[nH]nc(-c2ccncc2)cc1-c1nc2ccncc2[nH]1` [Example 38, 4-(3H-imidazol[4,5-c]pyridin-2-yl)-6-pyridin-4-yl-2H-pyridazin-3-one], 0.032 µM. In the case of `CN1CCN(Cc2ccc3nc(-c4cc(-c5ccncc5)n[nH]c4=O)[nH]c3c2)CC1` [Example 42, 4-[6-(4-Methylpiperazin-1-ylmethyl)-1H-benzimidazol-2-yl]-6-pyridin-4-yl-2H-pyridazin-3-one], the IC50 turned out to be 0.007 µM. Still for that read-out and setting: in the case of `O=c1[nH]nc(-c2ccsc2)cc1-c1nc2ccccc2[nH]1` [Example 46, 4-(1H-Benzimidazol-2-yl)-6-thiophen-3-yl-2H-pyridazin-3-one] it was 0.028 µM. On to `CN1CCN(Cc2ccc3nc(-c4cc(-c5ccccc5)n[nH]c4=O)[nH]c3c2)CC1` [Example 53, 4-[6-(4-Methylpiperazin-1-ylmethyl)-1H-benzimidazol-2-yl]-6-phenyl-2H-pyridazin-3-one], for which the IC50 came out at 0.042 µM. Turning to `O=c1[nH]nc(-c2ccnc(NC3CC3)n2)cc1-c1nc2ccccc2[nH]1` [Example 58, 4-(1H-Benzimidazol-2-yl)-6-(2-cyclopropylaminopyrimidin-4-yl)-2H-pyridazin-3-one], the IC50 amounted to 0.05 µM. With `O=c1[nH]nc(-n2ccnc2)cc1-c1nc2ccccc2[nH]1` [Example 68, 4-(1H-Benzimidazol-2-yl)-6-imidazol-1-yl-2H-pyridazin-3-one], the IC50 came to 0.063 µM.

Test system in a further data set: not given
Assay: not given
Conditions: not given
On to `O=c1[nH]nc(-c2ccncc2)cc1-c1nc2cc(Cl)ccc2[nH]1` [Example 5, 4-(6-Chloro-1H-benzimidazol-2-yl)-6-pyridin-4-yl-2H-pyridazin-3-one], for which the melting point is > 300 °C (dec.). Same read-out and setting: in the case of `O=c1[nH]nc(-c2ccncc2)cc1-c1nc2cc(C(F)(F)F)ccc2[nH]1` [Example 6, 4-(6-Tri-fluoromethyl-1H-benzimidazol-2-yl)-6-pyridin-4-yl-2H-pyridazin-3-one] it was > 300 °C (dec.). As for `COc1ccc2nc(-c3cc(-c4ccncc4)n[nH]c3=O)[nH]c2c1` [Example 7, 4-(6-Methoxy-1H-benzimidazol-2-yl)-6-pyridin-4-yl-2H-pyridazin-3-one], the melting point is > 300 °C (dec.).

Take `O=C(NCCNC1CCCCC1)c1ccc2nc(-c3cc(-c4ccncc4)n[nH]c3=O)[nH]c2c1` [Example 8, 2-(3-Oxo-6-pyridin-4-yl-2,3-dihydropyridazin-4-yl)-1H-benzimidazole-5-carboxylic acid (2-cyclohexylaminoethyl)amide]: the melting point amounted to 271 °C. In the case of `CN1CCN(CCCNC(=O)c2ccc3nc(-c4cc(-c5ccncc5)n[nH]c4=O)[nH]c3c2)CC1` [Example 9, 2-(3-Oxo-6-pyridin-4-yl-2,3-dihydropyridazin-4-yl)-1H-benzimidazole-5-carboxylic acid [3-(4-methylpiperazin-1-yl)propyl]amide], the melting point is greater than 300 °C.

`O=C(NCCCO)c1ccc2nc(-c3cc(-c4ccncc4)n[nH]c3=O)[nH]c2c1` [Example 10, 2-(3-Oxo-6-pyridin-4-yl-2,3-dihydropyridazin-4-yl)-1H-benzimidazole-5-carboxylic acid (3-hydroxypropyl)amide]: the melting point was > 300 °C (dec.). The same measure, in the same setting: the same measure for `Cc1cc(-c2nc3cc(Cl)ccc3[nH]2)c(=O)[nH]n1` [Example 11, 4-(5-Chloro-1H-benzimidazol-2-yl)-6-methyl-2H-pyridazin-3-one]: > 300 °C (dec.); for `CNc1nccc(-c2cc(-c3nc4cc(Cl)ccc4[nH]3)c(=O)[nH]n2)n1` [Example 14, 4-(5-Chloro-1H-benzimidazol-2-yl)-6-(2-methylaminopyrimidin-4-yl)-2H-pyridazin-3-one]: > 300 °C (dec.). As for `Cc1cccc2nc(-c3cc(-c4ccncc4)n[nH]c3=O)[nH]c12` [Example 17, 4-(7-Methyl-1H-benzimidazol-2-yl)-6-pyridin-4-yl-2H-pyridazin-3-one], the melting point is > 350 °C (dec.). For the compound `Cc1cc2nc(-c3cc(-c4ccncc4)n[nH]c3=O)[nH]c2cc1C` [Example 18, 4-(5,6-Dimethyl-1H-benzimidazol-2-yl)-6-pyridin-4-yl-2H-pyridazin-3-one], the melting point is > 350 °C (dec.). `CN1CCN(c2ccc3[nH]c(-c4cc(-c5ccncc5)n[nH]c4=O)nc3c2)CC1` [Example 19, 4-[5-(4-Methylpiperazin-1-yl)-1H-benzimidazol-2-yl]-6-pyridin-4-yl-2H-pyridazin-3-one]: the melting point was > 350 °C (dec.). As to `O=c1[nH]nc(-c2ccncc2)cc1-c1nc2cc(F)ccc2[nH]1` [Example 20, 4-(5-Fluoro-1H-benzimidazol-2-yl)-6-pyridin-4-yl-2H-pyridazin-3-one], the melting point was > 350 °C (dec.).

Regarding `N#Cc1ccc2[nH]c(-c3cc(-c4ccncc4)n[nH]c3=O)nc2c1` [Example 21, 4-(5-Cyano-1H-benzimidazol-2-yl)-6-pyridin-4-yl-2H-pyridazin-3-one], the melting point is > 350 °C (dec.). Still for that read-out and setting: in the case of `O=c1[nH]nc(-c2ccncc2)cc1-c1nc2ccc(Br)cc2[nH]1` [Example 22, 4-(5-Bromo-1H-benzimidazol-2-yl)-6-pyridin-4-yl-2H-pyridazin-3-one] it was > 350 °C (dec.). The same measure, in the same setting: in the case of `CCCCNc1nccc(-c2cc(-c3nc4ccc(Cl)cc4[nH]3)c(=O)[nH]n2)n1` [Example 26, 6-(2-Butylaminopyrimidin-4-yl)-4-(6-chloro-1H-benzimidazol-2-yl)-2H-pyridazin-3-one] it was 305 °C. Compound `CCCCNc1nccc(-c2cc(-c3nc4ccc(C(F)(F)F)cc4[nH]3)c(=O)[nH]n2)n1` [Example 27, 6-(2-Butylaminopyrimidin-4-yl)-4-(6-tri-fluoromethyl-1H-benzimidazol-2-yl)-2H-pyridazin-3-one] yielded a melting point of 288 °C. As to `O=c1[nH]nc(-c2ccncc2)cc1-c1nc2ccccc2[nH]1` [Example 28, 4-(1H-Benzimidazol-2-yl)-6-pyridin-4-yl-2H-pyridazin-3-one], the melting point is > 350 °C (dec.).
